# Test results from PubChem BioAssay (NCI).
# Where “and” joins values, the source holds several entries; their conditions need not be identical. Identical values can stand only once.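 Each compound was tested at five concentrations against cells in 96-well plates for 48 hours. GI50 = concentration required for 50% inhibition of growth. At the TGI there is no net growth.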
# How the values were obtained:
# Experiment in all cases: growth of human tumour cells (NCI), 48 h
# [1] = system: 786-0 renal
# [2] = system: A498 renal
# [3] = system: A549 NSCLC
# [4] = system: ACHN renal
# [5] = system: BT-549 breast
# [6] = system: CAKI-1 renal
# [7] = system: CCRF-CEM leukemia
# [8] = system: COLO 205 colon
# [9] = system: DU-145 prostate
# [10] = system: EKVX NSCLC
# [11] = system: HCC-2998 colon
# [12] = system: HCT-116 colon
# [13] = system: HCT-15 colon
# [14] = system: HL-60(TB) leukemia
# [15] = system: HOP-62 NSCLC
# [16] = system: HOP-92 NSCLC
# [17] = system: HS 578T breast
# [18] = system: HT29 colon
# [19] = system: IGROV1 ovarian
# [20] = system: K-562 leukemia
# [21] = system: KM12 colon
# [22] = system: LOX IMVI melanoma
# [23] = system: M14 melanoma
# [24] = system: MALME-3M melanoma
# [25] = system: MCF7 breast
# [26] = system: MDA-MB-231 breast
# [27] = system: MDA-MB-435
# [28] = system: MOLT-4 leukemia
# [29] = system: NCI-H226 lung
# [30] = system: NCI-H23 lung
# [31] = system: NCI-H460 lung
# [32] = system: NCI-H522 lung
# [33] = system: NCI/ADR-RES ovarian
# [34] = system: OVCAR-3 ovarian
# [35] = system: OVCAR-4 ovarian
# [36] = system: OVCAR-5 ovarian
# [37] = system: OVCAR-8 ovarian
# [38] = system: PC-3 prostate
# [39] = system: RPMI-8226 leukemia
# [40] = system: RXF 393 renal
# [41] = system: SF-268 CNS
# [42] = system: SF-295 CNS
# [43] = system: SF-539 CNS
# [44] = system: SK-MEL-2 melanoma
# [45] = system: SK-MEL-28 melanoma
# [46] = system: SK-MEL-5 melanoma
# [47] = system: SK-OV-3 ovarian
# [48] = system: SN12C renal
# [49] = system: SNB-19 CNS
# [50] = system: SNB-75 CNS
# [51] = system: SR leukemia
# [52] = system: SW-620 colon
# [53] = system: T-47D breast
# [54] = system: TK-10 renal
# [55] = system: U251 CNS
# [56] = system: UACC-257 melanoma
# [57] = system: UACC-62 melanoma
# [58] = system: UO-31 renal
compound,measurement,setting,value
COc1cc(C2C3=C(COC3=O)N(CCO)c3cc4c(cc32)OCO4)cc(OC)c1OC (stereo unspecified),GI50,[1],0.474 µM and 0.754 µM
same,TGI,[1],12.5 µM and > 16.8 µM
same,GI50,[2],0.257 µM and 0.407 µM
same,TGI,[2],1.07 µM and 8.82 µM
same,GI50,[3],0.595 µM and 1.06 µM
same,TGI,[3],12.5 µM and > 16.8 µM
same,GI50,[4],1.09 µM and 0.925 µM
same,TGI,[4],12.5 µM and > 16.8 µM
same,GI50,[5],4.33 µM and 0.834 µM
same,TGI,[5],12.5 µM and 9.33 µM
same,GI50,[6],8.66 µM and 2.39 µM
same,TGI,[6],12.5 µM and > 16.8 µM
same,GI50,[7],0.473 µM and 0.802 µM
same,TGI,[7],12.5 µM and > 16.8 µM
same,GI50,[8],0.36 µM and 0.332 µM
same,TGI,[8],1.02 µM and 0.765 µM
same,GI50,[9],0.342 µM and 0.55 µM
same,TGI,[9],1.02 µM and 2.59 µM
same,GI50,[10],6.65 µM and 1.03 µM
same,TGI,[10],12.5 µM and > 16.8 µM
same,GI50,[11],0.697 µM and 0.702 µM
same,TGI,[11],6.21 µM and 5.11 µM
same,GI50,[12],0.468 µM and 0.524 µM
same,TGI,[12],12.5 µM and 13.8 µM
same,GI50,[13],1.52 µM and 1.13 µM
same,TGI,[13],12.5 µM and > 16.8 µM
same,GI50,[14],0.343 µM and 0.629 µM
same,GI50,[15],0.779 µM and 0.738 µM
same,TGI,[15],12.5 µM and > 16.8 µM
same,GI50,[16],6.02 µM and 5.99 µM
same,TGI,[16],12.5 µM and > 16.8 µM
same,GI50,[17],0.276 µM and 0.268 µM
same,GI50,[18],0.403 µM and 0.585 µM
same,TGI,[18],1.94 µM and 2.03 µM
same,GI50,[19],0.328 µM and 0.625 µM
same,TGI,[19],1.97 µM and 6.3 µM
same,GI50,[20],0.406 µM and 0.489 µM
same,TGI,[20],12.5 µM and > 16.8 µM
same,GI50,[21],0.334 µM and 0.462 µM
same,TGI,[21],2.31 µM and 8.86 µM
same,GI50,[22],0.976 µM
same,TGI,[22],> 16.8 µM
same,GI50,[23],0.311 µM and 0.363 µM
same,TGI,[23],0.926 µM and 1.38 µM
same,GI50,[24],0.532 µM and 0.745 µM
same,TGI,[24],12.5 µM and > 16.8 µM
same,GI50,[25],0.409 µM and 0.426 µM
same,TGI,[25],12.5 µM and > 16.8 µM
same,GI50,[26],0.971 µM and 1.6 µM
same,TGI,[26],12.5 µM and > 16.8 µM
same,GI50,[27],0.175 µM and 0.151 µM
same,TGI,[27],0.592 µM and 0.616 µM
same,GI50,[28],0.675 µM and 4.39 µM
same,TGI,[28],12.5 µM and > 16.8 µM
same,GI50,[29],> 12.5 µM and 2.94 µM
same,TGI,[29],> 16.8 µM
same,GI50,[30],0.412 µM and 0.574 µM
same,TGI,[30],2.46 µM and > 16.8 µM
same,GI50,[31],0.438 µM and 0.542 µM
same,TGI,[31],12.5 µM and 3.4 µM
same,GI50,[32],0.173 µM and 0.26 µM
same,TGI,[32],0.666 µM and 1.25 µM
same,GI50,[33],3.92 µM and 14.8 µM
same,TGI,[33],12.5 µM and > 16.8 µM
same,GI50,[34],0.244 µM and 0.319 µM
same,TGI,[34],0.542 µM and 0.668 µM
same,GI50,[35],0.706 µM and 0.987 µM
same,TGI,[35],12.5 µM and > 16.8 µM
same,GI50,[36],1.66 µM and 0.5 µM
same,TGI,[36],12.5 µM and > 16.8 µM
same,GI50,[37],0.427 µM and 0.77 µM
same,TGI,[37],12.5 µM and > 16.8 µM
same,GI50,[38],0.611 µM and 0.612 µM
same,TGI,[38],12.5 µM and > 16.8 µM
same,GI50,[39],0.521 µM and 0.715 µM
same,TGI,[39],12.5 µM and > 16.8 µM
same,GI50,[40],0.176 µM and 0.337 µM
same,TGI,[40],0.501 µM and 0.931 µM
same,GI50,[41],0.321 µM and 0.872 µM
same,TGI,[41],2.05 µM and > 16.8 µM
same,GI50,[42],0.537 µM and 0.235 µM
same,GI50,[43],0.323 µM and 0.434 µM
same,TGI,[43],0.947 µM and 3.01 µM
same,GI50,[44],0.298 µM and 0.979 µM
same,GI50,[45],0.706 µM and 1.08 µM
same,TGI,[45],12.5 µM and > 16.8 µM
same,GI50,[46],0.359 µM and 0.561 µM
same,TGI,[46],2.46 µM and 4.35 µM
same,GI50,[47],0.456 µM and 0.491 µM
same,TGI,[47],7.71 µM and > 16.8 µM
same,GI50,[48],1.25 µM and 1.13 µM
same,TGI,[48],12.5 µM and > 16.8 µM
same,GI50,[49],0.408 µM and 0.72 µM
same,TGI,[49],6.65 µM and > 16.8 µM
same,GI50,[50],0.514 µM and 0.251 µM
same,TGI,[50],12.5 µM and > 16.8 µM
same,GI50,[51],0.323 µM
same,TGI,[51],> 16.8 µM
same,GI50,[52],0.439 µM and 0.697 µM
same,TGI,[52],12.5 µM and > 16.8 µM
same,GI50,[53],0.474 µM
same,TGI,[53],12.5 µM
same,GI50,[54],1.24 µM and 2.73 µM
same,TGI,[54],12.5 µM and > 16.8 µM
same,GI50,[55],0.5 µM and 0.631 µM
same,TGI,[55],12.5 µM and > 16.8 µM
same,TGI,[56],12.5 µM and > 16.8 µM
same,GI50,[57],1 µM and 0.565 µM
same,TGI,[57],12.5 µM and > 16.8 µM
same,TGI,[58],12.5 µM and > 16.8 µM
COc1ccc(-c2cn[nH]c2-c2cc(OC)c(OC)c(OC)c2)cc1OCc1ccccc1,GI50,[1],2.96 µM
same,TGI,[1],16.2 µM
same,GI50,[2],2.08 µM
same,TGI,[2],5.51 µM
same,GI50,[3],3.56 µM
same,TGI,[3],51.6 µM
same,GI50,[4],3.53 µM
same,TGI,[4],35.2 µM
same,GI50,[5],5.33 µM
same,TGI,[5],25.8 µM
same,GI50,[6],3.58 µM
same,TGI,[6],47.1 µM
same,GI50,[7],3.49 µM
same,TGI,[7],26.5 µM
same,GI50,[8],4.58 µM
same,TGI,[8],18.1 µM
same,GI50,[9],3.94 µM
same,TGI,[9],21.6 µM
same,GI50,[10],4.48 µM
same,TGI,[10],47.2 µM
same,GI50,[11],3.45 µM
same,TGI,[11],12.1 µM
same,GI50,[12],3.13 µM
same,TGI,[12],11.2 µM
same,GI50,[13],3.07 µM
same,TGI,[13],13.2 µM
same,GI50,[14],2.36 µM
same,TGI,[14],5.44 µM
same,GI50,[15],3.13 µM
same,TGI,[15],14.1 µM
same,GI50,[16],2.01 µM
same,TGI,[16],15.3 µM
same,GI50,[17],2.23 µM
same,TGI,[17],8.86 µM
same,GI50,[18],3.61 µM
same,TGI,[18],15.8 µM
same,GI50,[19],3.52 µM
same,TGI,[19],18.7 µM
same,GI50,[20],3.18 µM
same,TGI,[20],> 100 µM
same,GI50,[21],3.3 µM
same,TGI,[21],12 µM
same,GI50,[22],3.44 µM
same,TGI,[22],13.6 µM
same,GI50,[23],2.63 µM
same,TGI,[23],8.77 µM
same,GI50,[24],4.28 µM
same,TGI,[24],26.2 µM
same,GI50,[25],3.65 µM
same,TGI,[25],17.1 µM
same,GI50,[26],3.25 µM
same,TGI,[26],16.5 µM
same,GI50,[27],1.95 µM
same,TGI,[27],3.91 µM
same,GI50,[28],3.1 µM
same,TGI,[28],11 µM
same,GI50,[29],3.57 µM
same,TGI,[29],20.5 µM
same,GI50,[30],4.21 µM
same,TGI,[30],31.7 µM
same,GI50,[31],3.35 µM
same,TGI,[31],12.2 µM
same,GI50,[32],2 µM
same,TGI,[32],9.31 µM
same,GI50,[33],2.52 µM
same,TGI,[33],7.43 µM
same,GI50,[34],2.47 µM
same,TGI,[34],5.44 µM
same,GI50,[35],4.97 µM
same,TGI,[35],59.1 µM
same,GI50,[36],3.76 µM
same,TGI,[36],28 µM
same,GI50,[37],3.72 µM
same,TGI,[37],30.3 µM
same,GI50,[38],3.24 µM
same,TGI,[38],19.1 µM
same,GI50,[39],2.22 µM
same,TGI,[39],9.28 µM
same,GI50,[40],1.95 µM
same,TGI,[40],4.85 µM
same,GI50,[41],4.6 µM
same,TGI,[41],27 µM
same,GI50,[42],3.01 µM
same,TGI,[42],9.02 µM
same,GI50,[43],2.19 µM
same,TGI,[43],5.23 µM
same,GI50,[44],4.27 µM
same,TGI,[44],16.7 µM
same,GI50,[45],4.86 µM
same,TGI,[45],18.3 µM
same,GI50,[46],2.29 µM
same,TGI,[46],5.89 µM
same,GI50,[47],3.74 µM
same,TGI,[47],23.8 µM
same,GI50,[48],4.41 µM
same,TGI,[48],19.4 µM
same,GI50,[49],4.23 µM
same,TGI,[49],24.7 µM
same,GI50,[50],2.91 µM
same,TGI,[50],9.23 µM
same,GI50,[51],2.85 µM
same,TGI,[51],9.38 µM
same,GI50,[52],4.37 µM
same,TGI,[52],30.2 µM
same,GI50,[53],2.83 µM
same,TGI,[53],19.1 µM
same,GI50,[54],4.53 µM
same,TGI,[54],49 µM
same,GI50,[55],3.24 µM
same,TGI,[55],11.8 µM
same,GI50,[56],6.38 µM
same,TGI,[56],24.3 µM
same,GI50,[57],3.02 µM
same,TGI,[57],13.3 µM
same,GI50,[58],3.21 µM
same,TGI,[58],15.2 µM
